According to PubChem BioAssay AID1117319 (Southern Research Institute, 2015):
Inconclusive results are not listed.

target: Virion infectivity factor (Human immunodeficiency virus type 1 group M subtype B (isolate BH10)) + Virion infectivity factor (Human immunodeficiency virus type 1 group M subtype B (isolate BRU/LAI)) + Virion infectivity factor (Human immunodeficiency virus type 1 group M subtype B (isolate PCV12)) + Virion infectivity factor (Human immunodeficiency virus type 1 group M subtype B (isolate HXB2)) + DNA dC->dU-editing enzyme APOBEC-3G (Homo sapiens) (UniProt P69720+P69721+P69722+P69723+Q9HC16); experiment: HIV-1 Vif–A3G interaction blockers – biochemical, TR-FRET, GST-Vif 1-94, biotin-A3G peptide, dose response retest, primary screen (AID 1117319); settings: TR-FRET GST-Vif / biotin-A3G peptide binding;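 note: Vif residues 1-94 fused to GST binding biotinylated APOBEC3G peptide 110-148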

Structure (SMILES)	IC50
O=C(/C=C/c1ccco1)N(c1ccccn1)c1ccccn1	3.05 µM
O=c1[nH]c2ccccc2n2c(-c3ccccc3)nnc12	15.5 µM
CC1(C)CCCN(C(=O)c2coc(=O)c(Br)c2)C1	3.54 µM
CCOC(=O)C1=C(O)/C(=C/c2ccc(CNC(=O)C(=O)Nc3ccc(C)cc3)o2)N=C1C	33.3 µM
N#Cc1ccc(N2CCN(C(=O)c3cccc(F)c3)CC2)c(F)c1	91 µM
COc1cc(C(=O)NCC(c2ccco2)N2CCCC2)ccc1OCc1c(C)noc1C (configuration not stated)	99.2 µM
Cc1cccc(N2C(=O)/C(=C/c3ccc(CN(CCC#N)S(C)(=O)=O)o3)C(=O)NC2=S)c1	22.9 µM
Cc1ccc(/C=C2\SC(=S)N(c3cccnc3)C2=O)o1	6.87 µM
CC(C)(C)c1ccc(-c2nnc(SCCC#N)n2C2CCCC2)cc1	86.7 µM
CCCn1cnc2cc(NCc3ccccn3)ccc21	28.6 µM
O=C(O)C1OC(Oc2c(-c3ccc(O)c(O)c3)oc3cc(O)cc(O)c3c2=O)C(O)C(O)C1O (configuration not stated)	2.7 µM
O=C1CC(=O)N(Cc2ccco2)C(=S)N1	2.21 µM
CNC(=O)[C@@H]1C[C@H]1[C@@H](NC(=O)OCc1ccccc1)c1ccccc1	16.6 µM
CCn1c(C)nc2cc(C(=O)N/N=C/c3ccc(O)c(O)c3O)ccc21	0.52 µM
COc1ccc2nc3ccccc3nc2c1N	6 µM
CCc1cc(=O)oc2cc(C)c(CN3CCCC3)c(O)c12	4.07 µM
CSc1nnc(-c2ccco2)c(-c2ccco2)n1	1.49 µM
O=C(Nc1cccc(C(F)(F)F)c1)c1ccc2nc(-c3ccco3)c(-c3ccco3)nc2c1	0.69 µM
CC(C)(Oc1ccc(Cl)cc1)C(=O)NCc1ccco1	43.1 µM

Structure (SMILES)	IC50
O=c1cc2oc3cc(O)c(O)cc3c(-c3ccccc3O)c-2cc1O	0.84 µM
COc1ccc(NC(=O)CN(C)C(=O)c2cccc(-n3cccc3)c2)cc1	14.9 µM
CC1=CC(C)(C)Nc2ccc(OC(=O)c3cccnc3)cc21	30.4 µM
C/C(=N\Nc1ccc(Cl)c(C(=O)O)c1)c1ccc[nH]1	8.87 µM
O=C(O)c1ccc(Cl)c2c1C1C=CCC1C(c1ccccn1)N2 (configuration not stated)	0.82 µM
O=C(Nc1ccc(Cl)c(-c2nc3ccccc3[nH]2)c1)c1cccnc1	79.7 µM
C/C(N)=C(/C#N)C(=O)CSc1nnc(Nc2c(C)cccc2C)s1	17.5 µM
O=C1NC(c2ccc(Br)cc2)=N/C1=C/c1ccco1	7.41 µM
Cc1ccc(Nc2cnn(C34CC5CC(CC(CC(=O)O)(C5)C3)C4)c(=O)c2Cl)cc1C	96.6 µM
Cc1cnc(NC(=O)CSc2nnc(CNc3ccc(F)cc3)n2CC2CCCO2)s1 (configuration not stated)	53 µM
Cc1cc2c(c(=O)o1)C(c1ccc([N+](=O)[O-])o1)C(C#N)=C(N)O2 (configuration not stated)	2.53 µM
CCN(CC)c1ccc(NC(=O)CCS(=O)(=O)c2ccc(Br)cc2)c(C)c1	5.51 µM
O=C(COC(=O)c1ccccc1)Nc1ncc([N+](=O)[O-])s1	6.6 µM
Cc1ccc(CCC(=O)Nc2ccc(S(N)(=O)=O)cc2)o1	57.4 µM
O=C(Nc1nc(-c2ccco2)c(-c2ccco2)s1)c1ccc(F)cc1F	85.4 µM
Cc1cccc2c1c1ccc3c(c1n2C)C(=O)C=CC3=O	7.63 µM
O=C(O)CCC(=O)N(Cc1cccs1)Cc1cccs1	79.6 µM
COc1c(OC(C)=O)ccc(/C=C/c2ccc3ccccc3n2)c1[N+](=O)[O-]	97.2 µM
COc1ccc(OC)c(Nc2nc(-c3ccc(O)c(O)c3)cs2)c1	4.19 µM

Structure (SMILES)	IC50
CCCCn1c(N)c(N(CCOC)C(=O)c2cc(-c3ccco3)nc3ccccc23)c(=O)[nH]c1=O	10.9 µM
CC(=O)c1ccc(S(=O)(=O)Nc2cccc(-n3cnnn3)c2)cc1	12.1 µM
COC(Cc1nnc(SC)n1-c1ccc(Cl)cc1)OC	43 µM
Cc1cc(C(=O)Nc2sc3c(c2C#N)CCCCC3)cs1	95.9 µM
O=C(NC1=CC(=O)c2ccccc2C1=O)c1ccccc1	20.7 µM
Cn1c(=O)c2c(ncn2CC(=O)N/N=C/C=C/c2ccco2)n(C)c1=O	6.39 µM
Nc1ccc(Oc2ncccn2)cc1	24.4 µM
C=CCn1c(O)c(C(CC)=Nc2ccc(N(C)C)cc2)c(=O)[nH]c1=O	57.6 µM
CC(=O)Nc1cc(NC(C)=O)cc(C(=O)N2CCCC3CCCCC32)c1 (configuration not stated)	9.5 µM
COc1cccc(CNC(=O)CCNS(=O)(=O)c2cccs2)c1	1.44 µM
O=C(O)/C=C/C(=O)Nc1cccnc1	62.9 µM
COc1cc(NC(=O)c2noc3c2CCC3)c(OC)cc1Cl	15.8 µM
Cc1ccc(Nc2ccc(N)cc2S(=O)(=O)O)cc1	32 µM
COc1ccc(S(=O)(=O)c2c(N)n(Cc3ccco3)c3nc4ccccc4nc23)cc1	3.47 µM
COc1ccccc1NCCC(=O)OCC(=O)NCc1ccco1	13.9 µM
O=C1C=C(Nc2cccc3cccnc23)c2ccccc2C1=O	22.8 µM
CCCCOc1ccccc1C1NC(=O)NC(C)=C1C(=O)OCc1ccco1 (configuration not stated)	57.3 µM
O=C(O)c1cccc2cccc(-c3c4ccc(=O)c(O)c-4oc4c(O)c(O)ccc34)c12	0.53 µM
Cc1cc(C)n(CC(=O)NNC(=O)c2ccc(NC(=O)CC#N)cc2)n1	91.3 µM
